According to patent US20240109918A1, “HETEROCYCLIC COMPOUNDS AND USES THEREOF” (Kumquat Biosciences Inc., priority 2022, published 2024):

How the values were obtained:
KRASwt = target: T1, KRASwt (Homo sapiens, UniProt P01116); assay: Bio-Biochem-PPI-HTRF Ras-SOS1 interaction assay (KRAS wt); format: biochemical; conditions: 5 nM
T1 construct: made in house; host or cells: E. coli BL21 (DE3)
In short: (§1)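 GST-tagged K-Ras (wt or G12D) with anti-GST-Eu(K) donor was mixed with His-hSOS1 and anti-6His-XL665 acceptor in HEPES pH 7.4/NaCl/DTT/BSA/Igepal buffer, with compound in duplicate from 10 μM down to 0.01 μM. After about 10 min or longer, HTRF 665/620 nm ratio gave IC50.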

KRASG12D = target: T2, KRASG12D (Homo sapiens, UniProt P01116, G12D); assay: Bio-Biochem-PPI-HTRF Ras-SOS1 interaction assay (KRAS G12D); format: biochemical; conditions: 5 nM
T2 construct: made in house; host or cells: E. coli BL21 (DE3)
In short: as §1

T2 sequence (P01116 1-188 isoform P01116-2 G12D): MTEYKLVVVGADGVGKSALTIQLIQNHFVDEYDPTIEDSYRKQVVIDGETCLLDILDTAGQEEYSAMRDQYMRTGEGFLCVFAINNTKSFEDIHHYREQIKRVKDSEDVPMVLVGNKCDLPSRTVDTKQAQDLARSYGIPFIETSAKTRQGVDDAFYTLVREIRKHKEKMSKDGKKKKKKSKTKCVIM
T1 sequence (P01116 1-188 isoform P01116-2): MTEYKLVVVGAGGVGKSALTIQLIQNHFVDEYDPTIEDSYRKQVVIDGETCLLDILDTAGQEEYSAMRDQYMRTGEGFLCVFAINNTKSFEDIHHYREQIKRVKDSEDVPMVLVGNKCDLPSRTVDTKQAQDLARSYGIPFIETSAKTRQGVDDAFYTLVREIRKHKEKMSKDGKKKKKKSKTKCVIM

SMILES	IC50 (KRASwt)	IC50 (KRASG12D)
N#Cc1c(N)sc2c(F)ccc(-c3c(Cl)cc4c(N5CCCCC6(CN(C(=O)C7(CC(F)F)CC7)C6)C5)nc(OC[C@@]56CCCN5C[C@H](F)C6)nc4c3F)c12 [compound 227, 2-amino-4-(6-chloro-4-(2-(1-(2,2-difluoroethyl)cyclopropane-1-carbonyl)-2,6-diazaspiro[3.6]decan-6-yl)-8-fluoro-2-(((2R,7aS)-2-fluorotetrahydro-1H-pyrrolizin-7a(5H)-yl)methoxy)quinazolin-7-yl)-7-fluorobenzo[b]thiophene-3-carbonitrile]	< 5 µM	< 5 µM
N#Cc1c(N)sc2c(F)ccc(-c3c(Cl)cc4c(N5CCCCC6(CN(C(=O)COC(F)(F)C(F)(F)F)C6)C5)nc(OC[C@@]56CCCN5C[C@H](F)C6)nc4c3F)c12 [compound 302, 2-amino-4-(6-chloro-8-fluoro-2-(((2R,7aS)-2-fluorotetrahydro-1H-pyrrolizin-7a(5H)-yl)methoxy)-4-(2-(2-(perfluoroethoxy)acetyl)-2,6-diazaspiro[3.6]decan-6-yl)quinazolin-7-yl)-7-fluorobenzo[b]thiophene-3-carbonitrile]	< 5 µM	< 5 µM
N#Cc1c(N)sc2c(F)ccc(-c3c(F)c4nc(OC[C@@]56CCCN5C[C@H](F)C6)nc(N5CCCCC6(CNC6)C5)c4c(=O)n3C3CC3)c12 [compound 198, 2-amino-4-(6-cyclopropyl-8-fluoro-2-(((2R,7aS)-2-fluorotetrahydro-1H-pyrrolizin-7a(5H)-yl)methoxy)-5-oxo-4-(2,6-diazaspiro[3.6]decan-6-yl)-5,6-dihydropyrido[4,3-d]pyrimidin-7-yl)-7-fluorobenzo[b]thiophene-3-carbonitrile]	< 5 µM	< 5 µM
Nc1nc2c(-c3c(Cl)cc4c(N5CCOC6(CCNC6)C5)nc(OCC56CCCN5C[C@H](F)C6)nc4c3F)ccc(F)c2s1 (stereo partly drawn) [compound 150, 4-(6-chloro-8-fluoro-2-(((2R)-2-fluorotetrahydro-1H-pyrrolizin-7a(5H)-yl)methoxy)-4-(6-oxa-2,9-diazaspiro[4.5]decan-9-yl)quinazolin-7-yl)-7-fluorobenzo[d]thiazol-2-amine]	< 5 µM	< 5 µM
C#Cc1c(F)ccc2cc(O)cc(-c3ccc4c(N5CCOC6(CNC6)C5)nc(OC[C@@]56CCCN5C[C@H](F)C6)nc4c3F)c12 [compound 158, 5-ethynyl-6-fluoro-4-(8-fluoro-2-(((2R,7aS)-2-fluorotetrahydro-1H-pyrrolizin-7a(5H)-yl)methoxy)-4-(5-oxa-2,8-diazaspiro[3.5]nonan-8-yl)quinazolin-7-yl)naphthalen-2-ol]	< 5 µM	< 5 µM
Cn1cc(C(=O)N2CC3(CCCCN(c4nc(OC[C@@]56CCCN5C[C@H](F)C6)nc5c(F)c(-c6ccc(F)c7sc(N)c(C#N)c67)c(Cl)cc45)C3)C2)c(C(F)F)n1 [compound 220, 2-amino-4-(6-chloro-4-(2-(3-(difluoromethyl)-1-methyl-1H-pyrazole-4-carbonyl)-2,6-diazaspiro[3.6]decan-6-yl)-8-fluoro-2-(((2R,7aS)-2-fluorotetrahydro-1H-pyrrolizin-7a(5H)-yl)methoxy)quinazolin-7-yl)-7-fluorobenzo[b]thiophene-3-carbonitrile]	< 5 µM	< 5 µM
N#Cc1c(N)sc2c(F)ccc(-c3c(Cl)cc4c(N5CC(F)CCC6(CN(C(=O)[C@@H]7CC7(F)F)C6)C5)nc(OC[C@@]56CCCN5C[C@H](F)C6)nc4c3F)c12 (stereo partly drawn) [compound 269, 2-amino-4-(6-chloro-4-(2-((S)-2,2-difluorocyclopropane-1-carbonyl)-8-fluoro-2,6-diazaspiro[3.6]decan-6-yl)-8-fluoro-2-(((2R,7aS)-2-fluorotetrahydro-1H-pyrrolizin-7a(5H)-yl)methoxy)quinazolin-7-yl)-7-fluorobenzo[b]thiophene-3-carbonitrile]	< 5 µM	< 5 µM
N#Cc1c(N)sc2c(F)ccc(-c3c(Cl)cc4c(N5CCC(F)(F)CC6(CN(C(=O)[C@@H]7CC7(F)F)C6)C5)nc(OC[C@@]56CCCN5C[C@H](F)C6)nc4c3F)c12 [compound 290, 2-amino-4-(6-chloro-4-(2-((S)-2,2-difluorocyclopropane-1-carbonyl)-9,9-difluoro-2,6-diazaspiro [3.6]decan-6-yl)-8-fluoro-2-(((2R,7aS)-2-fluorotetrahydro-1H-pyrrolizin-7a(5H)-yl)methoxy)quinazolin-7-yl)-7-fluorobenzo[b]thiophene-3-carbonitrile]	< 5 µM	< 5 µM
CN1CCC[C@H]1COc1nc(N2CCCC3(CNC3)C2)c2cc(Cl)c(-c3cccc4sc(N)nc34)c(F)c2n1 [compound 172, 4-(6-chloro-8-fluoro-2-(((S)-1-methylpyrrolidin-2-yl)methoxy)-4-(2,6-diazaspiro[3.5]nonan-6-yl)quinazolin-7-yl)benzo[d]thiazol-2-amine]	< 5 µM	< 5 µM
N#Cc1c(N)sc2c(F)ccc(-c3c(Cl)cc4c(N5CCCCC6(CN(C(=O)C7COC7)C6)C5)nc(OC[C@@]56CCCN5C[C@H](F)C6)nc4c3F)c12 [compound 293, 2-amino-4-(6-chloro-8-fluoro-2-(((2R,7aS)-2-fluorotetrahydro-1H-pyrrolizin-7a(5H)-yl)methoxy)-4-(2-(oxetane-3-carbonyl)-2,6-diazaspiro[3.6]decan-6-yl)quinazolin-7-yl)-7-fluorobenzo[b]thiophene-3-carbonitrile]	< 5 µM	< 5 µM
N#Cc1c(N)sc2c(F)ccc(-c3c(Cl)cc4c(N5CCC6(CC5)CN(C(=O)C5CC5(F)F)C6)nc(OC[C@@]56CCCN5C[C@H](F)C6)nc4c3F)c12 (stereo partly drawn) [compound 131, 2-amino-4-(6-chloro-4-(2-(2,2-difluorocyclopropane-1-carbonyl)-2,7-diazaspiro[3.5]nonan-7-yl)-8-fluoro-2-(((2R,7aS)-2-fluorotetrahydro-1H-pyrrolizin-7a(5H)-yl)methoxy)quinazolin-7-yl)-7-fluorobenzo[b]thiophene-3-carbonitrile]	< 5 µM	< 5 µM
N#Cc1c(N)sc2c(F)ccc(-c3c(Cl)cc4c(N5CCCCC6(CN(C(=O)C7(C#N)CC7)C6)C5)nc(OC[C@@]56CCCN5C[C@H](F)C6)nc4c3F)c12 [compound 242, 2-amino-4-(6-chloro-4-(2-(1-cyanocyclopropane-1-carbonyl)-2,6-diazaspiro[3.6]decan-6-yl)-8-fluoro-2-(((2R,7aS)-2-fluorotetrahydro-1H-pyrrolizin-7a(5H)-yl)methoxy)quinazolin-7-yl)-7-fluorobenzo[b]thiophene-3-carbonitrile]	< 5 µM	< 5 µM
COC1CN(C(=O)N2CC3(CCCCN(c4nc(OC[C@@]56CCCN5C[C@H](F)C6)nc5c(F)c(-c6ccc(F)c7sc(N)c(C#N)c67)c(Cl)cc45)C3)C2)C1 [compound 306, 2-amino-4-(6-chloro-8-fluoro-2-(((2R,7aS)-2-fluorotetrahydro-1H-pyrrolizin-7a(5H)-yl)methoxy)-4-(2-(3-methoxyazetidine-1-carbonyl)-2,6-diazaspiro[3.6]decan-6-yl)quinazolin-7-yl)-7-fluorobenzo[b]thiophene-3-carbonitrile]	< 5 µM	< 5 µM
